PMC6105164 (Cancer Chemotherapy and Pharmacology, 2018)
Entries after “also recorded” stand apart in the source; their conditions may differ.

Assays:
[1] = Urine concentration of Salirasib (LC-MS/MS), day 1; format: in vivo, human; conditions: within 24 h, any dosing group (200, 600, 1000 mg sampled)
Description: Blood samples were collected 10 times on day 1 (before drug administration, and 0.5-, 1-, 1.5-, 2-, 4-, 6-, 8-, 12-, and 24-h post-administration), once on days 4, 7, and 14, and 9 times on day 21 (before morning dose, and 0.5, 1, 1.5, 2, 4, 6, 8, and 12 h after morning dose but before evening dose). Urine samples were collected from patients who received 200, 600, or 1000 mg on day 1 (before drug administration, and 0–6-, 6–12-, 12–24-h post-administration).

[2] = tested on: Japanese patients with relapsed/refractory solid tumors; test: Safety: dose-limiting toxicity and adverse events (NCI-CTCAE v.4.0); format: in vivo, human; conditions: for Death: first and repeated regimens
Description: Treatment was immediately terminated at the patient’s request when DLT occurred; the study physician decided that continuation was inappropriate because of AEs; or if the tumor was classified as progressive disease (PD) according to the Response Evaluation Criteria in Solid Tumor (RECIST) Guideline. In cases of DLT, patients were allowed to continue the regimen with dose adjustments upon providing written agreement.
Patients were registered when up to three patients received ≥ 60% of planned treatment in the regimen before DLT was evaluated for dose escalation. […] According to the DLT and pharmacokinetics data obtained by a given time, the recommended dose was determined and additional three patients were added to the dosing group a posteriori.
To evaluate the safety, vital signs (systolic and diastolic blood pressure, pulse rate, body temperature, and body weight), 12-lead electrocardiogram, clinical laboratory tests, chest X-ray, and performance status [Eastern Cooperative Oncology Group (ECOG)] were evaluated on predefined dates (Supplemental Table S1). Examined items in the clinical laboratory tests are listed in Supplemental Table S2.
AEs were graded in accordance with NCI-CTCAE v.4.0 and recorded. The study physicians determined whether the AEs were drug-related and recorded.

[3] = tested on: relapsed/refractory solid tumors; test: Exploratory evaluation of efficacy (RECIST); format: in vivo, human; conditions: for Number of cycles completed, Median / Number of cycles completed, Range: completed = ≥ 60% of planned treatment
Description: Treatment was immediately terminated at the patient’s request when DLT occurred; the study physician decided that continuation was inappropriate because of AEs; or if the tumor was classified as progressive disease (PD) according to the Response Evaluation Criteria in Solid Tumor (RECIST) Guideline. In cases of DLT, patients were allowed to continue the regimen with dose adjustments upon providing written agreement. At the end of the regimen, patients were allowed to repeat the same regimen if all of the following criteria were met: no DLT occurred; the tumor was not determined as PD; the study physicians agreed; and the patient provided written informed consent. […] Diagnostic imaging using computed tomography, magnetic resonance imaging (MRI), fluorodeoxyglucose-positron emission tomography (PET), and/or bone scintigraphy was performed depending on the tumors and clinical symptoms on day 22 of first and repeated regimens or at discontinuation. Specific tumor markers (e.g., carcinoembryonic antigen for colorectal cancer and prostate-specific antigen for prostate cancer) were measured on day 22 of first and repeated regimens or at discontinuation. Based on the information obtained, the efficacy was scored in accordance with the RECIST guideline.

US patients = conditions: cited from earlier work
[4] = 800 mg twice-daily, for one patient days until withdrawal were counted
[5] = 800 mg twice-daily, two patients not evaluated
[6] = patients with KRAS mutations (4 patients)

Compound: CC(C)=CCC/C(C)=C/CC/C(C)=C/CSc1ccccc1C(=O)O [Salirasib, S-trans, trans-farnesylthiosalicylic acid]
- excretion in urine [1]: not excreted in urine
- Death ([2]; 100 mg twice-daily): 0 (0.0) N (%)
- Death ([2]; 200 mg twice-daily): 0 (0.0) N (%)
- Death ([2]; 400 mg twice-daily): 0 (0.0) N (%)
- Death ([2]; 600 mg twice-daily): 0 (0.0) N (%)
- Death ([2]; 800 mg twice-daily): 0 (0.0) N (%)
- Death ([2]; 1000 mg twice-daily): 0 (0.0) N (%)
- Death ([2]; Total, all dose groups): 0 (0.0) N (%)
- deaths during the treatment period, in words ([2]; all dose groups): No patients died
- AEs observed at grade ≥ 3: ALP increased ([2]; human, in vivo): 3 (14.3) N (%)
- AEs observed at grade ≥ 3: AST increased ([2]; human, in vivo): 1 (4.8) N (%)
- AEs observed at grade ≥ 3: Amylase increased ([2]; human, in vivo): 1 (4.8) N (%)
- AEs observed at grade ≥ 3: Anemia ([2]; human, in vivo): 2 (9.5) N (%)
- AEs observed at grade ≥ 3: Ascites ([2]; human, in vivo): 1 (4.8) N (%)
- AEs observed at grade ≥ 3: Bilirubin increased ([2]; human, in vivo): 1 (4.8) N (%)
- AEs observed at grade ≥ 3: Cancer pain ([2]; human, in vivo): 1 (4.8) N (%)
- AEs observed at grade ≥ 3: Cholestatic jaundice ([2]; human, in vivo): 1 (4.8) N (%)
- AEs observed at grade ≥ 3: Decreased appetite ([2]; human, in vivo): 1 (4.8) N (%)
- AEs observed at grade ≥ 3: Diarrhea ([2]; human, in vivo): 2 (9.5) N (%)
- AEs observed at grade ≥ 3: Hemoglobin decreased ([2]; human, in vivo): 2 (9.5) N (%)
- AEs observed at grade ≥ 3: Hypercalcemia ([2]; human, in vivo): 1 (4.8) N (%)
- AEs observed at grade ≥ 3: Hyponatremia ([2]; human, in vivo): 2 (9.5) N (%)
- AEs observed at grade ≥ 3: Hypophosphatemia ([2]; human, in vivo): 1 (4.8) N (%)
- AEs observed at grade ≥ 3: Lymphopenia ([2]; human, in vivo): 1 (4.8) N (%)
- AEs observed at grade ≥ 3: Troponin T increased ([2]; human, in vivo): 1 (4.8) N (%)
- AEs observed at grade ≥ 3: γ-GTP increased ([2]; human, in vivo): 3 (14.3) N (%)
- AEs observed in ≥ 3 patients: Abdominal pain ([2]; human, in vivo): 6 (28.6) N (%)
- AEs observed in ≥ 3 patients: Decreased appetite ([2]; human, in vivo): 9 (42.9) N (%)
- AEs observed in ≥ 3 patients: Diarrhea ([2]; human, in vivo): 18 (85.7) N (%)
- AEs observed in ≥ 3 patients: Nausea ([2]; human, in vivo): 6 (28.6) N (%)
- AEs observed in ≥ 3 patients: Vomiting ([2]; human, in vivo): 4 (19.0) N (%)
- All AEs ([2]; human, in vivo): 21 (100) N (%)
- All drug-related AEs ([2]; human, in vivo): 19 (90.5) N (%)
- Discontinuation because of AEs ([2]; human, in vivo): 0 (0.0) N (%)
- Discontinuation because of drug-related AEs ([2]; human, in vivo): 0 (0.0) N (%)
- Dose-limiting toxicity (DLT) ([2]; human, in vivo): 0 (0.0) N (%)
- Patients with AEs of grade ≥ 3 ([2]; human, in vivo): 9 (42.9) N (%)
- Patients with drug-related AEs of grade ≥ 3 ([2]; human, in vivo): 4 (19.0) N (%)
- Serious AEs ([2]; human, in vivo): 1 (4.8) N (%)
- Serious drug-related AEs ([2]; human, in vivo): 0 (0.0) N (%)
- patients in whom AEs were observed ([2]; human, in vivo): 21 patients
- dose considered safe and tolerable ([2]; human, in vivo, 28 days): up to 1000 mg
- AEs of grade ≥ 3, in words ([2]; in vivo): not observed
- Dose-limiting toxicity (DLT), in words ([2]; in vivo): no DLT was observed
- maximum tolerable dose ([2]; in vivo): No maximum tolerable dose was discerned
- patients with drug-related AEs, in words ([2]; in vivo): in all patients except two
- serious AE, in words ([2]; in vivo): One serious AE (ascites)
- Disease control rate (DCR): CR + PR + SD ([3]; 100 mg twice-daily): 1 (33.3) N (%)
- Objective response rate (ORR): CR + PR ([3]; 100 mg twice-daily): 0 (0.0) N (%)
- Progression-free survival, Median ([3]; 100 mg twice-daily): 22 days
- Progression-free survival, Range ([3]; 100 mg twice-daily): 16 to 53 days
- Response rate: Complete response (CR) ([3]; 100 mg twice-daily): 0 (0.0) N (%)
- Response rate: Partial response (PR) ([3]; 100 mg twice-daily): 0 (0.0) N (%)
- Response rate: Progressive disease (PD) ([3]; 100 mg twice-daily): 2 (66.7) N (%)
- Number of cycles completed, Median ([3]; 100 mg twice-daily): 1
- Number of cycles completed, Range ([3]; 100 mg twice-daily): 1–2
- Disease control rate (DCR): CR + PR + SD ([3]; 200 mg twice-daily): 3 (100.0) N (%)
- Objective response rate (ORR): CR + PR ([3]; 200 mg twice-daily): 0 (0.0) N (%)
- Progression-free survival, Median ([3]; 200 mg twice-daily): 213 days
- Progression-free survival, Range ([3]; 200 mg twice-daily): 57 to 373 days
- Response rate: Complete response (CR) ([3]; 200 mg twice-daily): 0 (0.0) N (%)
- Response rate: Partial response (PR) ([3]; 200 mg twice-daily): 0 (0.0) N (%)
- Response rate: Progressive disease (PD) ([3]; 200 mg twice-daily): 0 (0.0) N (%)
- Number of cycles completed, Median ([3]; 200 mg twice-daily): 7
- Number of cycles completed, Range ([3]; 200 mg twice-daily): 2–13
- Disease control rate (DCR): CR + PR + SD ([3]; 400 mg twice-daily): 2 (66.7) N (%)
- Objective response rate (ORR): CR + PR ([3]; 400 mg twice-daily): 0 (0.0) N (%)
- Progression-free survival, Median ([3]; 400 mg twice-daily): 56 days
- Progression-free survival, Range ([3]; 400 mg twice-daily): 22 to 91 days
- Response rate: Complete response (CR) ([3]; 400 mg twice-daily): 0 (0.0) N (%)
- Response rate: Partial response (PR) ([3]; 400 mg twice-daily): 0 (0.0) N (%)
- Response rate: Progressive disease (PD) ([3]; 400 mg twice-daily): 1 (33.3) N (%)
- Number of cycles completed, Median ([3]; 400 mg twice-daily): 2
- Number of cycles completed, Range ([3]; 400 mg twice-daily): 1–3
- Disease control rate (DCR): CR + PR + SD ([3]; 600 mg twice-daily): 2 (66.7) N (%)
- Objective response rate (ORR): CR + PR ([3]; 600 mg twice-daily): 0 (0.0) N (%)
- Progression-free survival, Median ([3]; 600 mg twice-daily): 135 days
- Progression-free survival, Range ([3]; 600 mg twice-daily): 79 to 319 days
- Response rate: Complete response (CR) ([3]; 600 mg twice-daily): 0 (0.0) N (%)
- Response rate: Partial response (PR) ([3]; 600 mg twice-daily): 0 (0.0) N (%)
- Response rate: Progressive disease (PD) ([3]; 600 mg twice-daily): 1 (33.3) N (%)
- Number of cycles completed, Median ([3]; 600 mg twice-daily): 5
- Number of cycles completed, Range ([3]; 600 mg twice-daily): 3–11
- Number of cycles completed, Median ([3]; 800 mg twice-daily): 1
- Number of cycles completed, Range ([3]; 800 mg twice-daily): 1–11
- Progression-free survival, Median [3, 4]: 29 days
- Progression-free survival, Range [3, 4]: 22 to 307 days
- Disease control rate (DCR): CR + PR + SD [3, 5]: 1 (16.7) N (%)
- Objective response rate (ORR): CR + PR [3, 5]: 0 (0.0) N (%)
- Response rate: Complete response (CR) [3, 5]: 0 (0.0) N (%)
- Response rate: Partial response (PR) [3, 5]: 0 (0.0) N (%)
- Response rate: Progressive disease (PD) [3, 5]: 3 (50.0) N (%)
- Disease control rate (DCR): CR + PR + SD ([3]; 1000 mg twice-daily): 1 (33.3) N (%)
- Objective response rate (ORR): CR + PR ([3]; 1000 mg twice-daily): 0 (0.0) N (%)
- Progression-free survival, Median ([3]; 1000 mg twice-daily): 22 days
- Progression-free survival, Range ([3]; 1000 mg twice-daily): 22 to 91 days
- Response rate: Complete response (CR) ([3]; 1000 mg twice-daily): 0 (0.0) N (%)
- Response rate: Partial response (PR) ([3]; 1000 mg twice-daily): 0 (0.0) N (%)
- Response rate: Progressive disease (PD) ([3]; 1000 mg twice-daily): 2 (66.7) N (%)
- Number of cycles completed, Median ([3]; 1000 mg twice-daily): 1
- Number of cycles completed, Range ([3]; 1000 mg twice-daily): 1–3
- Disease control rate (DCR): CR + PR + SD ([3]; Total, all dose groups): 10 (47.6) N (%)
- Objective response rate (ORR): CR + PR ([3]; Total, all dose groups): 0 (0.0) N (%)
- Progression-free survival, Median ([3]; Total, all dose groups): 53 days
- Progression-free survival, Range ([3]; Total, all dose groups): 16 to 373 days
- Response rate: Complete response (CR) ([3]; Total, all dose groups): 0 (0.0) N (%)
- Response rate: Partial response (PR) ([3]; Total, all dose groups): 0 (0.0) N (%)
- Response rate: Progressive disease (PD) ([3]; Total, all dose groups): 9 (42.9) N (%)
- Number of cycles completed, Median ([3]; Total, all dose groups): 2
- Number of cycles completed, Range ([3]; Total, all dose groups): 1–13
- complete response (CR) or partial response (PR), in words ([3]; all patients, during the trial): Neither complete response (CR) nor partial response (PR) was found; also recorded: no patients showed CR or PR
- patients who repeated the regimen ([3]; of 21 patients): 11 patients
- Progression-free survival, Range [3, 6]: 79 to 373 days
- median progression-free survival [3, 6]: 227 days
- number of cycles, median [3, 6]: 8 cycles
- number of cycles, range [3, 6]: 3–13 cycles
- drug-related AEs (US patients; US patients on 800-mg regimen): all patients on 800-mg regimen experienced drug-related AEs
- Dose-limiting toxicity (DLT) (US patients; phase I trial in the US patients, up to 800 mg): no DLT was observed up to 800 mg
